Experimental data reported in ChEMBL document CHEMBL3797052 (Eur J Med Chem, 2016).

tested on: not listed separately; test: Antiproliferative activity against human BT549 cells assessed as cell growth at 10^-8 M after 48 hrs by sulforhodamine B assay; format: functional; settings: BT-549, 48 h, read-out: Activity

Structure (SMILES) | growth at 0.01 µM
CNC(=O)c1cc(Oc2ccc3nc(NC(=O)Nc4ccc(Cl)c(Cl)c4)sc3c2)ccn1 | 94%

tested on: not listed separately; test: Antiproliferative activity against human RPMI8226 cells assessed as cell growth at 10^-7 M after 48 hrs by sulforhodamine B assay; format: functional; settings: RPMI-8226, 48 h, read-out: Activity

Structure (SMILES) | growth at 0.1 µM
CNC(=O)c1cc(Oc2ccc3nc(NC(=O)Nc4ccc(Cl)c(Cl)c4)sc3c2)ccn1 | 107%

tested on: not listed separately; test: Antiproliferative activity against human COLO205 cells assessed as cell growth at 10^-7 M after 48 hrs by sulforhodamine B assay; format: functional; settings: COLO 205, 48 h, read-out: Activity

Structure (SMILES) | growth at 0.1 µM
CNC(=O)c1cc(Oc2ccc3nc(NC(=O)Nc4ccc(Cl)c(Cl)c4)sc3c2)ccn1 | 105%

tested on: not listed separately; test: Antiproliferative activity against human SF268 cells assessed as cell growth at 10^-7 M after 48 hrs by sulforhodamine B assay; format: functional; settings: SF-268, 48 h, read-out: Activity

Structure (SMILES) | growth at 0.1 µM
CNC(=O)c1cc(Oc2ccc3nc(NC(=O)Nc4ccc(Cl)c(Cl)c4)sc3c2)ccn1 | 99%

tested on: not listed separately; test: Antiproliferative activity against human SF295 cells assessed as cell growth at 10^-7 M after 48 hrs by sulforhodamine B assay; format: functional; settings: SF-295, 48 h, read-out: Activity

Structure (SMILES) | growth at 0.1 µM
CNC(=O)c1cc(Oc2ccc3nc(NC(=O)Nc4ccc(Cl)c(Cl)c4)sc3c2)ccn1 | 90%

tested on: not listed separately; test: Antiproliferative activity against human SNB19 cells assessed as cell growth at 10^-7 M after 48 hrs by sulforhodamine B assay; format: functional; settings: SNB-19, 48 h, read-out: Activity

Structure (SMILES) | growth at 0.1 µM
CNC(=O)c1cc(Oc2ccc3nc(NC(=O)Nc4ccc(Cl)c(Cl)c4)sc3c2)ccn1 | 110%

tested on: not listed separately; test: Antiproliferative activity against human SNB75 cells assessed as cell growth at 10^-7 M after 48 hrs by sulforhodamine B assay; format: functional; settings: SNB-75, 48 h, read-out: Activity

Structure (SMILES) | growth at 0.1 µM
CNC(=O)c1cc(Oc2ccc3nc(NC(=O)Nc4ccc(Cl)c(Cl)c4)sc3c2)ccn1 | 83%

tested on: not listed separately; test: Antiproliferative activity against human BT549 cells assessed as cell growth at 10^-4 M after 48 hrs by sulforhodamine B assay; format: functional; settings: BT-549, 48 h, read-out: Activity

Structure (SMILES) | growth at 100 µM
CNC(=O)c1cc(Oc2ccc3nc(NC(=O)Nc4ccc(Cl)c(Cl)c4)sc3c2)ccn1 | 6%

tested on: not listed separately; test: Antiproliferative activity against human UACC62 cells assessed as growth inhibition after 48 hrs by sulforhodamine B assay; format: functional; settings: UACC-62, 48 h

Structure (SMILES) | GI50 | TGI
CNC(=O)c1cc(Oc2ccc3nc(NC(=O)Nc4ccc(Cl)c(Cl)c4)sc3c2)ccn1 | 2.32 µM | 7.76 µM

same assay, conditions: UACC-62, 48 h, read-out: LC50 (the source's name)

Structure (SMILES) | CC50
CNC(=O)c1cc(Oc2ccc3nc(NC(=O)Nc4ccc(Cl)c(Cl)c4)sc3c2)ccn1 | > 100 µM

tested on: SK-MEL-5; test: Antiproliferative activity against human SK-MEL-5 cells assessed as growth inhibition after 48 hrs by sulforhodamine B assay; format: functional; settings: SK-MEL-5, 48 h

Structure (SMILES) | GI50 | TGI
CNC(=O)c1cc(Oc2ccc3nc(NC(=O)Nc4ccc(Cl)c(Cl)c4)sc3c2)ccn1 | 2.24 µM | 5.58 µM

same assay, conditions: SK-MEL-5, 48 h, read-out: LC50 (the source's name)

Structure (SMILES) | CC50
CNC(=O)c1cc(Oc2ccc3nc(NC(=O)Nc4ccc(Cl)c(Cl)c4)sc3c2)ccn1 | > 100 µM

tested on: M14; test: Antiproliferative activity against human M14 cells assessed as growth inhibition after 48 hrs by sulforhodamine B assay; format: functional; settings: M14, 48 h

Structure (SMILES) | GI50 | TGI
CNC(=O)c1cc(Oc2ccc3nc(NC(=O)Nc4ccc(Cl)c(Cl)c4)sc3c2)ccn1 | 2.13 µM | 4.74 µM

same assay, conditions: M14, 48 h, read-out: LC50 (the source's name)

Structure (SMILES) | CC50
CNC(=O)c1cc(Oc2ccc3nc(NC(=O)Nc4ccc(Cl)c(Cl)c4)sc3c2)ccn1 | > 100 µM

tested on: not listed separately; test: Antiproliferative activity against human LOXIMVI cells assessed as cell growth at 10^-7 M after 48 hrs by sulforhodamine B assay; format: functional; settings: LOX IMVI, read-out: Activity

Structure (SMILES) | growth at 0.1 µM
CNC(=O)c1cc(Oc2ccc3nc(NC(=O)Nc4ccc(Cl)c(Cl)c4)sc3c2)ccn1 | 93%

tested on: 786-0; test: Antiproliferative activity against human 786-0 cells assessed as cell growth at 10^-7 M after 48 hrs by sulforhodamine B assay; format: functional; settings: 786-0, 48 h, read-out: Activity

Structure (SMILES) | growth at 0.1 µM
CNC(=O)c1cc(Oc2ccc3nc(NC(=O)Nc4ccc(Cl)c(Cl)c4)sc3c2)ccn1 | 100%

tested on: not listed separately; test: Antiproliferative activity against human TK10 cells assessed as cell growth at 10^-7 M after 48 hrs by sulforhodamine B assay; format: functional; settings: TK-10, 48 h, read-out: Activity

Structure (SMILES) | growth at 0.1 µM
CNC(=O)c1cc(Oc2ccc3nc(NC(=O)Nc4ccc(Cl)c(Cl)c4)sc3c2)ccn1 | 112%

tested on: not listed separately; test: Antiproliferative activity against human HCT116 cells assessed as growth inhibition after 48 hrs by sulforhodamine B assay; format: functional; settings: HCT-116, 48 h

Structure (SMILES) | GI50 | LC50 (concentration killing 50% of the starting cells) | TGI
CNC(=O)c1cc(Oc2ccc3nc(NC(=O)Nc4ccc(Cl)c(Cl)c4)sc3c2)ccn1 | 1.88 µM | 11.5 µM | 4.35 µM

tested on: NCI-H322M; test: Antiproliferative activity against human NCI-H322M cells assessed as growth inhibition after 48 hrs by sulforhodamine B assay; format: functional; settings: not given

Structure (SMILES) | GI50 | LC50 (50% lethal concentration)
CNC(=O)c1cc(Oc2ccc3nc(NC(=O)Nc4ccc(Cl)c(Cl)c4)sc3c2)ccn1 | 2.45 µM | > 100 µM

tested on: NCI-H23; test: Antiproliferative activity against human NCI-H23 cells assessed as growth inhibition after 48 hrs by sulforhodamine B assay; format: functional; settings: NCI-H23, 48 h

Structure (SMILES) | GI50 | LC50 | TGI
CNC(=O)c1cc(Oc2ccc3nc(NC(=O)Nc4ccc(Cl)c(Cl)c4)sc3c2)ccn1 | 2.78 µM | > 100 µM | > 100 µM

tested on: not listed separately; test: Antiproliferative activity against human HOP92 cells assessed as growth inhibition after 48 hrs by sulforhodamine B assay; format: functional; settings: HOP-92, 48 h

Structure (SMILES) | GI50 | LC50 | TGI
CNC(=O)c1cc(Oc2ccc3nc(NC(=O)Nc4ccc(Cl)c(Cl)c4)sc3c2)ccn1 | 2.66 µM | 18.8 µM | 5.39 µM

target: hERG (KCNH2) (Homo sapiens, UniProt Q12809); test: Inhibition of human ERG assessed as reduction in channel current at 100 uM by automated patch-clamp electrophysiology assay; settings: not given
Sequence (Q12809 whole entry): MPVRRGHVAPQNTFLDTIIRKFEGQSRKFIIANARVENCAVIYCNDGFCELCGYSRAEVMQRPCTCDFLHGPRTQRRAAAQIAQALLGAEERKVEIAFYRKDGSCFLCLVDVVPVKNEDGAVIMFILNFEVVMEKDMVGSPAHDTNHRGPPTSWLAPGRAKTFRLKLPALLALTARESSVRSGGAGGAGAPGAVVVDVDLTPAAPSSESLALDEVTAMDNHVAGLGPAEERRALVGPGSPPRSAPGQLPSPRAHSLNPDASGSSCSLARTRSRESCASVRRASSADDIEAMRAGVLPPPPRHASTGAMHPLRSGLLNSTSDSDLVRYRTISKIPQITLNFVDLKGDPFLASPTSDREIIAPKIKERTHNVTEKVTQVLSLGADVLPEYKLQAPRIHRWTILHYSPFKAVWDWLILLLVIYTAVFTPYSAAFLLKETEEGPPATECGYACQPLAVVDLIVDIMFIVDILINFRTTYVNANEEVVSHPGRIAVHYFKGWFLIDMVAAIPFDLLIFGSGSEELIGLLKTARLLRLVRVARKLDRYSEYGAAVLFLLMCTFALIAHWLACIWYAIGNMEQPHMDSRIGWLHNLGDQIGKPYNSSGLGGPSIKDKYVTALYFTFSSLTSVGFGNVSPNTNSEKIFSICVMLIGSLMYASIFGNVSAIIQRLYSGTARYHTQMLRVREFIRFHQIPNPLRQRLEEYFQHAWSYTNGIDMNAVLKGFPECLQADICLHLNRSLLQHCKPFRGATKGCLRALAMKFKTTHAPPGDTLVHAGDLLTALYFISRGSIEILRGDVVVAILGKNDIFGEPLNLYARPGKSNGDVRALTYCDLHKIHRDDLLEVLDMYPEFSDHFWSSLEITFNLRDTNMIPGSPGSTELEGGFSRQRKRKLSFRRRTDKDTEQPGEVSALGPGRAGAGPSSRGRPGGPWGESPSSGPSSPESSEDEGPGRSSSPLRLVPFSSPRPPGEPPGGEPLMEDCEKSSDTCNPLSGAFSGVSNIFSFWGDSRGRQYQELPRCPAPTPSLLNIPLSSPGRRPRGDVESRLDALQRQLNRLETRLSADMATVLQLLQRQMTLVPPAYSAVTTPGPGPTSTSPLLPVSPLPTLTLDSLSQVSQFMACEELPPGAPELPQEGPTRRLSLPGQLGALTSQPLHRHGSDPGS

Structure (SMILES) | inhibition at 100 µM
CNC(=O)c1cc(Oc2ccc3nc(NC(=O)Nc4ccc(Cl)c(Cl)c4)sc3c2)ccn1 | 47.9%

tested on: not listed separately; test: Antiproliferative activity against human SW620 cells assessed as cell growth at […] M after 48 hrs by sulforhodamine B assay; format: functional; settings: SW-620, 48 h, read-out: Activity

Structure (SMILES) | growth at 0.01 µM
CNC(=O)c1cc(Oc2ccc3nc(NC(=O)Nc4ccc(Cl)c(Cl)c4)sc3c2)ccn1 | 102%

tested on: not listed separately; test: Antiproliferative activity against human MOLT4 cells assessed as cell growth at 10^-6 M after 48 hrs by sulforhodamine B assay; format: functional; settings: MOLT-4, 48 h, read-out: Activity

Structure (SMILES) | growth at 1 µM
CNC(=O)c1cc(Oc2ccc3nc(NC(=O)Nc4ccc(Cl)c(Cl)c4)sc3c2)ccn1 | 99%

tested on: not listed separately; test: Antiproliferative activity against human HOP92 cells assessed as cell growth at 10^-6 M after 48 hrs by sulforhodamine B assay; format: functional; settings: HOP-92, 48 h, read-out: Activity

Structure (SMILES) | growth at 1 µM
CNC(=O)c1cc(Oc2ccc3nc(NC(=O)Nc4ccc(Cl)c(Cl)c4)sc3c2)ccn1 | 119%

tested on: not listed separately; test: Antiproliferative activity against human HCC2998 cells assessed as cell growth at 10^-6 M after 48 hrs by sulforhodamine B assay; format: functional; settings: HCC 2998, 48 h, read-out: Activity

Structure (SMILES) | growth at 1 µM
CNC(=O)c1cc(Oc2ccc3nc(NC(=O)Nc4ccc(Cl)c(Cl)c4)sc3c2)ccn1 | 100%

tested on: not listed separately; test: Antiproliferative activity against human HOP92 cells assessed as cell growth at 10^-4 M after 48 hrs by sulforhodamine B assay; format: functional; settings: HOP-92, 48 h, read-out: Activity

Structure (SMILES) | growth at 100 µM
CNC(=O)c1cc(Oc2ccc3nc(NC(=O)Nc4ccc(Cl)c(Cl)c4)sc3c2)ccn1 | -66%

tested on: NCI-H23; test: Antiproliferative activity against human NCI-H23 cells assessed as cell growth at 10^-4 M after 48 hrs by sulforhodamine B assay; format: functional; settings: NCI-H23, 48 h, read-out: Activity

Structure (SMILES) | growth at 100 µM
CNC(=O)c1cc(Oc2ccc3nc(NC(=O)Nc4ccc(Cl)c(Cl)c4)sc3c2)ccn1 | 6%

tested on: U-251; test: Antiproliferative activity against human U251 cells assessed as cell growth at 10^-4 M after 48 hrs by sulforhodamine B assay; format: functional; settings: U-251, 48 h, read-out: Activity

Structure (SMILES) | growth at 100 µM
CNC(=O)c1cc(Oc2ccc3nc(NC(=O)Nc4ccc(Cl)c(Cl)c4)sc3c2)ccn1 | -90%

tested on: Malme-3M; test: Antiproliferative activity against human MALME-3M cells assessed as cell growth at 10^-4 M after 48 hrs by sulforhodamine B assay; format: functional; settings: read-out: Activity

Structure (SMILES) | growth at 100 µM
CNC(=O)c1cc(Oc2ccc3nc(NC(=O)Nc4ccc(Cl)c(Cl)c4)sc3c2)ccn1 | -75%

tested on: SK-MEL-28; test: Antiproliferative activity against human SK-MEL-28 cells assessed as cell growth at 10^-8 M after 48 hrs by sulforhodamine B assay; format: functional; settings: SK-MEL-28, 48 h, read-out: Activity

Structure (SMILES) | growth at 0.01 µM
CNC(=O)c1cc(Oc2ccc3nc(NC(=O)Nc4ccc(Cl)c(Cl)c4)sc3c2)ccn1 | 95%

tested on: MDA-MB-231; test: Antiproliferative activity against human MDA-MB-231 cells assessed as cell growth at 10^-8 M after 48 hrs by sulforhodamine B assay; format: functional; settings: MDA-MB-231, 48 h, read-out: Activity

Structure (SMILES) | growth at 0.01 µM
CNC(=O)c1cc(Oc2ccc3nc(NC(=O)Nc4ccc(Cl)c(Cl)c4)sc3c2)ccn1 | 89%

tested on: not listed separately; test: Antiproliferative activity against human Hs 578T cells assessed as cell growth at 10^-8 M after 48 hrs by sulforhodamine B assay; format: functional; settings: read-out: Activity

Structure (SMILES) | growth at 0.01 µM
CNC(=O)c1cc(Oc2ccc3nc(NC(=O)Nc4ccc(Cl)c(Cl)c4)sc3c2)ccn1 | 100%

tested on: not listed separately; test: Antiproliferative activity against human UACC62 cells assessed as cell growth at 10^-6 M after 48 hrs by sulforhodamine B assay; format: functional; settings: UACC-62, 48 h, read-out: Activity

Structure (SMILES) | growth at 1 µM
CNC(=O)c1cc(Oc2ccc3nc(NC(=O)Nc4ccc(Cl)c(Cl)c4)sc3c2)ccn1 | 85%

tested on: not listed separately; test: Antiproliferative activity against human Caki1 cells assessed as cell growth at 10^-6 M after 48 hrs by sulforhodamine B assay; format: functional; settings: CAKI-1, 48 h, read-out: Activity

Structure (SMILES) | growth at 1 µM
CNC(=O)c1cc(Oc2ccc3nc(NC(=O)Nc4ccc(Cl)c(Cl)c4)sc3c2)ccn1 | 98%

tested on: SN12C; test: Antiproliferative activity against human SN12C cells assessed as cell growth at 10^-6 M after 48 hrs by sulforhodamine B assay; format: functional; settings: read-out: Activity

Structure (SMILES) | growth at 1 µM
CNC(=O)c1cc(Oc2ccc3nc(NC(=O)Nc4ccc(Cl)c(Cl)c4)sc3c2)ccn1 | 102%

tested on: SK-MEL-5; test: Antiproliferative activity against human SK-MEL-5 cells assessed as cell growth at 10^-4 M after 48 hrs by sulforhodamine B assay; format: functional; settings: SK-MEL-5, 48 h, read-out: Activity

Structure (SMILES) | growth at 100 µM
CNC(=O)c1cc(Oc2ccc3nc(NC(=O)Nc4ccc(Cl)c(Cl)c4)sc3c2)ccn1 | -23%

tested on: not listed separately; test: Antiproliferative activity against human OVCAR3 cells assessed as cell growth at 10^-4 M after 48 hrs by sulforhodamine B assay; format: functional; settings: OVCAR-3, 48 h, read-out: Activity

Structure (SMILES) | growth at 100 µM
CNC(=O)c1cc(Oc2ccc3nc(NC(=O)Nc4ccc(Cl)c(Cl)c4)sc3c2)ccn1 | -24%

tested on: not listed separately; test: Antiproliferative activity against human OVCAR4 cells assessed as cell growth at 10^-4 M after 48 hrs by sulforhodamine B assay; format: functional; settings: OVCAR-4, 48 h, read-out: Activity

Structure (SMILES) | growth at 100 µM
CNC(=O)c1cc(Oc2ccc3nc(NC(=O)Nc4ccc(Cl)c(Cl)c4)sc3c2)ccn1 | -68%
